Assay results as given in PubChem BioAssay (NCI).
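Dose response: 5 concentrations. Exposure: 48 h. Format: 96-well plates. Endpoint: linear interpolation; highest concentration if not reached. GI50 marks 50% less growth. TGI: concentration producing complete growth inhibition.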

Assays:
Assay in all cases: inhibition of tumour cell growth, NCI panel, 48 h
TK-10 renal = tested on: TK-10 renal
NCI-H460 lung = tested on: NCI-H460 lung
SK-OV-3 ovarian = tested on: SK-OV-3 ovarian
UACC-257 melanoma = tested on: UACC-257 melanoma
HCT-116 colon = tested on: HCT-116 colon
EKVX NSCLC = tested on: EKVX NSCLC
SF-539 CNS = tested on: SF-539 CNS
PC-3 prostate = tested on: PC-3 prostate
MCF7 breast = tested on: MCF7 breast
DU-145 prostate = tested on: DU-145 prostate

SMILES	TGI (TK-10 renal)	TGI (NCI-H460 lung)	TGI (SK-OV-3 ovarian) [µM]	TGI (UACC-257 melanoma) [µM]	TGI (HCT-116 colon)	TGI (EKVX NSCLC)	TGI (SF-539 CNS)	TGI (PC-3 prostate) [µM]	TGI (MCF7 breast) [µM]	TGI (DU-145 prostate) [µM]	GI50 (TK-10 renal)	GI50 (PC-3 prostate) [µM]	GI50 (SF-539 CNS)	GI50 (NCI-H460 lung)	GI50 (MCF7 breast) [µM]	GI50 (SK-OV-3 ovarian) [µM]	GI50 (HCT-116 colon)	GI50 (EKVX NSCLC)	GI50 (UACC-257 melanoma) [µM]	GI50 (DU-145 prostate) [µM]
CCOC(=O)CCn1[nH]c(=O)c(Cl)c(Cl)c1=O	> 100 µM	> 100 µM	> 100	> 100	> 100 µM	> 100 µM	–	–	–	–	–	–	–	–	–	–	–	–	–	–
FC(F)(F)c1nc(-c2ccccc2)oc1Sc1nnc(Sc2oc(-c3ccccc3)nc2C(F)(F)F)s1	> 100 µM	> 100 µM	> 100	> 100	> 100 µM	> 80.7 µM	> 100 µM	–	–	–	–	–	–	–	–	–	–	–	–	–
CN1C(=O)c2ccccc2NC(=O)C12O[C@@H]2c1cccc(O)c1 (stereo not given in full)	> 100 µM	> 100 µM	–	> 100	> 100 µM	> 100 µM	> 100 µM	> 100	> 100	> 100	–	–	–	–	–	–	–	–	–	–
Cc1nc2ccccc2c(=O)n1-c1ccccc1F	> 100 µM	> 100 µM	> 100	> 100	> 100 µM	> 100 µM	> 100 µM	–	–	–	–	–	–	–	–	–	–	–	–	–
CN(C)C(c1ccccc1)C(O)c1ccccc1 (stereo not given)	> 100 µM	> 100 µM	> 100	> 100	–	> 100 µM	> 100 µM	–	–	–	–	–	–	–	–	–	–	–	–	–
COc1ccc2c3c(coc13)C(CCC(=O)O)CC2 (stereo not given)	> 100 µM	> 100 µM	> 100	> 100	> 100 µM	> 100 µM	> 100 µM	–	–	–	–	–	–	–	–	–	–	–	–	–
CC(C)N1CN(C(C(=O)N[C@@H]2C(=O)N3C2SC(C)(C)C3C(=O)O)c2ccccc2)CSC1=S (stereo not given in full)	> 100 µM	> 100 µM	> 100	> 100	> 100 µM	> 100 µM	> 100 µM	–	–	–	–	–	–	–	–	–	–	–	–	–
CCc1ccc(Nc2ccc([N+](=O)[O-])cc2[N+](=O)[O-])cc1	> 100 µM	> 100 µM	> 100	> 100	> 100 µM	> 100 µM	> 100 µM	–	–	–	–	–	–	–	–	–	–	–	–	–
N#CCc1ccc(C(C#N)/C(CCCC(=O)Nc2cccc([N+](=O)[O-])c2)=N/NC(N)=S)cc1 (stereo not given)	> 100 µM	> 100 µM	> 100	> 100	> 100 µM	> 100 µM	> 100 µM	–	–	–	–	–	–	–	–	–	–	–	–	–
CCOc1ccc2c(c1)[n+]([O-])c(-c1nc3ccccc3s1)c(N)[n+]2[O-]	> 100 µM	> 100 µM	> 100	> 100	–	> 100 µM	> 100 µM	–	–	–	–	–	–	–	–	–	–	–	–	–
c1cc2c(ncc3cscc32)s1	> 100 µM	> 100 µM	–	> 100	> 31.6 µM	> 100 µM	> 100 µM	> 100	> 100	> 100	–	–	–	–	–	–	–	–	–	–
COc1ccc(/C=C\c2cc(OC)c(OC)c(OC)c2)cc1OC(=O)NCCN(C)C	> 100 µM	0.00485 µM	–	–	–	> 58.7 µM	0.00328 µM	–	> 100	0.043	> 47 µM	–	–	–	–	–	–	–	–	–
OC/C=C(\I)CCCOCOCc1ccccc1	> 100 µM	> 100 µM	> 100	–	> 100 µM	> 100 µM	> 100 µM	–	–	–	–	–	–	–	–	–	–	–	–	–
Cc1ccc(-c2cc(=O)c3cc(C)c(C)c(C(=O)O)c3o2)cc1C	> 100 µM	> 100 µM	> 100	> 100	> 100 µM	> 100 µM	> 100 µM	–	–	–	–	–	–	–	–	–	–	–	–	–
Cc1[nH]c2ccccc2c1C1Cc2ccccc2N1C(=O)/C(Cl)=C/c1ccccc1 (stereo not given)	> 100 µM	> 100 µM	> 100	> 100	> 100 µM	> 100 µM	> 100 µM	–	–	–	–	–	–	–	–	–	–	–	–	–
COC1=CC2(C=CC1=O)c1cc(OC)c(OC)cc1CCN2C(=O)c1ccccc1 (stereo not given)	> 100 µM	–	> 100	> 100	> 100 µM	> 100 µM	> 100 µM	–	–	–	–	–	–	–	–	–	–	–	–	–
COc1cc2c(c(OC)c1)C1(CC(CC#N)C2)SCCS1 (stereo not given)	> 100 µM	> 100 µM	> 100	> 100	> 100 µM	–	> 100 µM	–	–	–	–	–	–	–	–	–	–	–	–	–
COc1ccc(-n2cc(-c3cc(OC)c(OC)c(OC)c3)[nH]c2=O)cc1Cl	> 100 µM	> 100 µM	> 100	–	> 100 µM	> 100 µM	> 100 µM	> 100	> 100	–	55.2 µM	> 100	35 µM	> 100 µM	> 100	31.8	> 100 µM	> 100 µM	–	–
Fc1ccc(C2SCc3nc4ccccc4n32)cc1Cl (stereo not given)	67.1 µM	> 100 µM	49.5	56.7	–	92.8 µM	43.8 µM	–	–	–	–	–	–	–	–	–	–	–	–	–
N.N.O=C([O-])P(=O)([O-])[O-].[Na+].[Pt+4]	> 100 µM	> 100 µM	> 100	> 100	> 100 µM	> 100 µM	> 100 µM	–	–	–	> 100 µM	–	> 100 µM	> 100 µM	–	> 100	> 100 µM	> 100 µM	> 100	–
O=C(/C(=C/c1cccc([N+](=O)[O-])c1)c1ccccc1)c1ccccc1	21.4 µM	12.6 µM	10.2	18.8	4.25 µM	–	11.9 µM	36.2	13.3	14.7	4.19 µM	4.54	3.49 µM	3.32 µM	3.34	3.69	2.01 µM	–	4.17	4.22
C/C=C1/C(=C/c2[nH]c(/C=c3\[nH]/c(=C/C4=NC(=O)C(CC)=C4C)c(C)c3CCC(=O)O)c(CCC(=O)O)c2C)NC(=O)C1C (stereo not given)	> 150 µg/mL	> 150 µg/mL	–	–	> 150 µg/mL	> 150 µg/mL	> 150 µg/mL	–	–	–	> 150 µg/mL	–	> 150 µg/mL	> 150 µg/mL	–	–	> 150 µg/mL	> 150 µg/mL	–	–
CCO/N=C(/N)c1ncn(Cc2ccccc2)c1NCC(OCC)OCC	> 100 µM	> 100 µM	> 100	> 100	> 100 µM	> 100 µM	> 100 µM	–	–	–	–	–	–	–	–	–	–	–	–	–
COc1ccc(CNc2nc3cc(C(F)(F)F)ccc3nc2C)cc1OC	87.8 µM	> 100 µM	> 100	42.6	> 100 µM	72.6 µM	> 100 µM	–	–	–	–	–	–	–	–	–	–	–	–	–
